Measured values published in patent publication US5459150A, “Indole derivatives which inhibit leukotriene biosynthesis” (Abbott Laboratories, priority 1993, dated 1995).
Where a name gives a salt, the structure may show the parent alone.

What was measured:
[1] = tested on: LTB4 biosynthesis in human whole blood; assay: Inhibition of LTB4 biosynthesis in human whole blood (calcium ionophore A23187-induced); assay type: cell-based; conditions: human heparinized whole blood, A23187, 30 min at 37° C.
Protocol: (§1) Inhibition of leukotriene biosynthesis by representative compounds of the present invention was evaluated in assays involving calcium ionophore-induced LTB4 biosynthesis expressed by human polymorphonuclear leukocytes (PMNL) or human whole blood. Human PMNL were isolated from heparinized (20 USP units/mL) venous blood using Ficoll-Hypaque Mono-Poly Resolving Medium. Human PMNL suspensions (5×10^6 cells/250 μL) were preincubated with test compounds or vehicle for 15 min at 37° C. followed by calcium ionophore A23187 challenge (final concentration of 8.3 μM) and the reaction terminated after 10 rain by adding two volumes of methanol containing prostaglandin B2 as an internal recovery standard. The methanol extracts were analyzed for LTB4 content by HPLC or radioimmunoassay.
The assay using human heparinized whole blood was incubated for 30 minutes at 37° C. after adding […] of ionophore A23187. The plasma layer was obtained by centrifugation and deproteinized by the addition of four volumes of methanol. The methanol extract was analyzed for LTB4 by HPLC or radioimmunoassay.

[2] = tested on: LTB4 biosynthesis in human polymorphonuclear leukocytes (PMNL); assay: Inhibition of LTB4 biosynthesis in human PMNL (calcium ionophore A23187-induced); assay type: cell-based; conditions: for IC50: A23187 8.3 μM, 15 min preincubation; for Human PMNL, inhibition of LTB4 biosynthesis, % @ 1.6: @ 1.6 (μM)
Protocol: as §1

leukotriene biosynthesis = assay: Inhibition of leukotriene biosynthesis in vivo, rat peritoneal anaphylaxis model; conditions: one hour prior to antigen challenge
Protocol: Inhibition of the biosynthesis of leukotrienes in vivo after oral administration of compound was determined using a rat peritoneal anaphylaxis model in a similar manner as that described by Young and coworkers (Young, P. R.; Dyer, R. D.; Carter, G. W. Fed. Proc., Fed. Am. Soc. Exp. Biol. 1985, 44, 1185). In this model rats were injected intraperitoneally (ip) with rabbit antibody to bovine serum albumin (BSA) and three hours later injected ip with BSA to induce an antigen-antibody response. Rats were sacrificed 15 minutes after this challenge and the peritoneal fluids were collected and analyzed for leukotriene levels. Test compounds were administered by garage one hour prior to the antigen challenge. Percent inhibition values were determined by comparing the treatment group to the mean of the control group. Compounds of this invention are orally effective in preventing the in vivo bio-synthesis of leukotrienes as illustrated for representative examples shown in Table 2.

Row | Structure (SMILES) | IC50 ([1]; Homo sapiens, 0.5 h) | IC50 [2] | also measured
1 | CC(C)c1ccc2c(c1)c(SC(C)(C)C)c(CCNC(=O)N(C)O)n2Cc1ccc(Cl)cc1 [Example 4, N'-hydroxy-N'methyl-N-2-[(1-(4-chlorophenylmethyl)-3-(1,1-dimethylethylthio)-5-(1-methylethyl))indol-2-yl]ethyl urea] | 6.7 µM | 0.57 µM | 
2 | CC(C)c1ccc2c(c1)c(SC(C)(C)C)c(CC(C)(C)NC(=O)NCCC(=O)O)n2Cc1ccc(Cl)cc1 [Example 10] | 2.5 µM |  | Human PMNL, inhibition of LTB4 biosynthesis, % @ 1.6 [2]: 70%
3 | CC(C)c1ccc2c(c1)c(SC(C)(C)C)c(CC(C)(C)NC(=O)NCCC(=O)O)n2Cc1ccc(Cl)cc1 [Example 13, 3-[3-(1-(4-chlorophenylmethyl)-3-(1,1dimethylethylthio)-5-(1-methylethyl)indol-2-yl)-2-aminocarbonylamino-2-methylpropyl]propanoic acid, sodium salt] |  |  | IC50 ([1]; sodium salt): 3 µM
4 | CC(C)c1ccc2c(c1)c(SC(C)(C)C)c([C@@H]1C[C@H]1CNC(N)=O)n2Cc1ccc(Cl)cc1 (relative stereo) [Example 23, N-[trans-2-(1-(4-chlorophenylmethyl)-3-(1,1-dimethylethylthio)-5-(1-methylethyl)indol-2-yl)cyclopropyl]methyl urea] | 2.7 µM | 0.4 µM | 
5 | CC(=O)NCC(C)(C)Cc1c(SC(C)(C)C)c2cc(C(C)C)ccc2n1Cc1ccc(Cl)cc1 [Example 22] | 2.1 µM |  | 
6 | CC(C)c1ccc2c(c1)c(SC(C)(C)C)c(CC(C)(C)CNC(N)=O)n2Cc1ccc(Cl)cc1 [Example 5, N-2,2-dimethyl-3-[(1-(4-chlorophenylmethyl)-3-(1,1-dimethylethyl-thio)-5-(1-methylethyl))indol-2-yl]propyl urea] | 0.71 µM | 0.18 µM | Percent Leukotriene inhibition at 100 μmol/kg oral dose (leukotriene biosynthesis): 86%
7 | CC(C)c1ccc2c(c1)c(SC(C)(C)C)c(CC(C)(C)CN(O)C(N)=O)n2Cc1ccc(Cl)cc1 [Example 3, N-hydroxy-N-2,2-dimethyl-3-[(1-(4-chlorophenylmethyl)-3-(1,1-dimethylethylthio)-5-(1-methylethyl))indol-2-yl]propyl urea] | 1.6 µM | 0.17 µM | Percent Leukotriene inhibition at 100 μmol/kg oral dose (leukotriene biosynthesis): 68%
8 | CC(C)c1ccc2c(c1)c(SC(C)(C)C)c(CC(C)(C)CNCCCO)n2Cc1ccc(Cl)cc1 [Example 7, 1-(4-chlorophenylmethyl)-2-[2,2-dimethyl-3-((3-hydroxypropyl)amino)propyl]-3-(1,1-dimethylethylthio)-5-(1-methylethyl)indole] | 6.9 µM | 4.2 µM | 
9 | CC(C)c1ccc2c(c1)c(SC(C)(C)C)c(CC(C)(C)NC(N)=O)n2Cc1ccc(Cl)cc1 [Example 8, N-2-[2-methyl-3-(1-(4-chlorophenylmethyl)-3-(1,1-dimethylethylthio)-5-(1-methylethyl)indol-2-yl)]propyl urea] | 5.2 µM | 0.4 µM | 
10 | CC(C)c1ccc2c(c1)c(SC(C)(C)C)c(CC(C)(C)C(=O)NCCNC(=O)N(C)O)n2Cc1ccc(Cl)cc1 [Example 6, N'-hydroxy-N'-methyl-N-2-[3-(1-(4-chlorophenylmethyl)-3-(1,1-dimethylethylthio)-5-(1-methylethyl)indol-2-yl)-2,2-dimethylpropionylamino]ethyl urea] | 1.2 µM | 0.15 µM | Percent Leukotriene inhibition at 100 μmol/kg oral dose (leukotriene biosynthesis): 86%
11 | CC(C)c1ccc2c(c1)c(SC(C)(C)C)c(CC(C)(C)C=NOCC(=O)O)n2Cc1ccc(Cl)cc1 [Example 20] | 0.68 µM |  | Percent Leukotriene inhibition at 100 μmol/kg oral dose (leukotriene biosynthesis): 99%
12 | CC(C)c1ccc2c(c1)c(SC(C)(C)C)c(CC(C)(C)C(=O)NCCC(=O)O)n2Cc1ccc(Cl)cc1 [Example 6.2] | 1.4 µM | 0.31 µM | 
13 | CC(C)c1ccc2c(c1)c(SC(C)(C)C)c([C@@H]1C[C@H]1CN(O)C(N)=O)n2Cc1ccc(Cl)cc1 (relative stereo) [Example 14, N-hydroxy-N-[trans-2-(1-(4-chlorophenylmethyl)-3-(1,1-dimethylethylthio)-5-(1-methylethyl)indol-2-yl)cyclopropyl]methylurea] | 2.5 µM |  | Human PMNL, inhibition of LTB4 biosynthesis, % @ 0.78 ([2]; @ 0.78 (μM)): 40%
14 | CC(C)c1ccc2c(c1)c(SC(C)(C)C)c(CC(C)(C)C(=O)O)n2Cc1ccncc1 [Example 15, 3-[3-(1,1-dimethylethylthio)-5-(1-methylethyl)-1-(4-pyridinylmethyl)indol-2-yl]-2,2-dimethylpropanoic acid] | 0.9 µM | 0.09 µM | 
15 | CC(C)c1ccc2c(c1)c(SC(C)(C)C)c(CC(C)(C)C=NO)n2Cc1ccc(Cl)cc1 [Example 2, 2,2-dimethyl-3-[1-(4-chlorophenylmethyl)-3-(1,1-dimethylethylthio)-5-(1-methylethyl)indol-2-yl]propionaldehyde oxime] | 2.2 µM | 0.27 µM | Percent Leukotriene inhibition at 100 μmol/kg oral dose (leukotriene biosynthesis): 46%
16 | CC(C)c1ccc2c(c1)c(SC(C)(C)C)c(CC(C)(C)C=NNC(=N)N)n2Cc1ccc(Cl)cc1 [Example 12, 1-(4-chlorophenylmethyl)-3-(1,1-dimethylethylthio)-2-[3-(2,2-dimethyl-1-guanidinylimino)propyl]-(1-methylethyl)indole] | 1.3 µM |  | Human PMNL, inhibition of LTB4 biosynthesis, % @ 3.1 ([2]; @ 3.1 (μM)): 100%
17 | CC(C)c1ccc2c(c1)c(SC(C)(C)C)c(CC(C)(C)C(=O)O)n2Cc1cccs1 [Example 16] | 5.5 µM |  | 
18 | CCOC(=O)C(C)(C)Cc1c(C(=O)CCNC(=O)N(C)O)c2cc(C(C)C)ccc2n1Cc1ccc(Cl)cc1 [Example 11, N'-hydroxy-N'-methyl-N-'[1-(4-chlorophenylmethyl)-5-(1-methylethyl)-2-((2-methyl-2-ethoxycarbonyl)propyl)indol-2-yl]-3-oxopropylurea] |  | 1.5 µM | IC50 ([1]; 0.5 h): 6.9 µM
19 | CC(C)c1ccc2c(c1)c(SC(C)(C)C)c(CC(C)(C)CN)n2Cc1ccc(Cl)cc1 [Example 21] | 1.1 µM |  | 
20 | CC(C)c1ccc2c(c1)c(SC(C)(C)C)c(CC(C)(C)NC(=O)N(C)O)n2Cc1ccc(Cl)cc1 [Example 1] | 1.3 µM | 0.15 µM | 
21 | CCOC(=O)CCNC(=O)NC(C)(C)Cc1c(SC(C)(C)C)c2cc(C(C)C)ccc2n1Cc1ccc(Cl)cc1 [Example 9] | 5.6 µM |  | Human PMNL, inhibition of LTB4 biosynthesis, % @ 1.6 [2]: 77%
